For one series, the target named is CD137 (Homo sapiens, UniProt Q07011). Description: CD137 reporter assay, co-culture with Nectin-4 tumour cells.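 Further: jurkat reporter cells co-cultured with tumour cells and test article for 6 h, luminescence signal relative to Jurkat plus tumour cells lacking test article.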 Type of series: cell-based. Also noted: host or cells: Jurkat reporter cells. In general terms: Reporter assays use an easily measured gene product as a stand-in for the process of interest.
The test system of series [1] is human PBMC co-cultured with 4T1-D02 (Nectin4+). As to the kind of experiment: Human PBMC-4T1 co-culture (cytokine release) assay. Type of series: cell-based. The conditions noted are these: anti-CD3 stimulated PBMC, 48 hours. The gist of the method:
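Healthy-donor human PBMCs co-cultured 5:1 with murine Nectin-4-overexpressing 4T1-D02 cells, stimulated with 125 ng/ml soluble anti-CD3 (OKT3) plus test compounds. IL-2 and IFNγ in 48 h supernatants measured by HTRF and interpolated from standard curves; three donors, each in duplicate.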

The nature of series [2]: Pharmacokinetics of CD137 bispecifics in SD rats. Type of series: in vivo. The conditions noted are these: SD Rat, 2 mg/kg IV, plasma. On the procedure:
Male SD Rats were dosed with 2 mg/kg of each Bicycle multimer formulated in 25 mM Histidine HCl, 10% sucrose pH 7. Serial bleeding (about 80 μL blood/time point) was performed via submadibular or saphenous vein at each time point. All blood samples were immediately transferred into prechilled microcentrifuge tubes containing 2 μL K2-EDTA (0.5M) as anti-coagulant and placed on wet ice. Blood samples were immediately processed for plasma by centrifugation at approximately 4° C., 3000 g. The precipitant including internal standard was immediately added into the plasma, mixed well and centrifuged at 12,000 rpm, 4° C. for 10 minutes. The supernatant was transferred into pre-labeled polypropylene microcentrifuge tubes, and then quick-frozen over dry ice. The samples were stored at […] or below as needed until analysis. 7.5 μL of the supernatant samples were directly injected for LC-MS/MS analysis using an Orbitrap Q Exactive in positive ion mode to determine the concentrations of Bicycle multimer. Plasma concentration versus time data were analyzed by non-compartmental approaches using the Phoenix WinNonlin 6.3 software program. C0, CI, Vdss, T½, AUC(0-last), AUC(0-inf), MRT(0-last), MRT(0-inf) and graphs of plasma concentration versus time profile were reported.

Series [3] has as its system primary patient derived tumour cells. Description: Ex vivo culture of primary patient-derived lung tumours. Type of series: cell-based, human. The conditions noted are these: patient-derived lung tumour samples. As to the method:
Primary patient derived tumour cells from Discovery Life Sciences (DLS) are thawed gently in 10 mL pre-warmed wash medium spiked fresh with Benzonase. The 3D spheroid kit from Greiner (cat #655840) is used to maintain cells in culture for 2 days. Briefly, tumour cells are counted with trypan blue using a haemocytometer. The cells are centrifuged at 1500 rpm for 5 min to wash, and the pellet is resuspended in 100 μL per 1×10^6 cells N3D nanoshuttle. To make them magnetic, cells are spun down at 1500 rpm for 5 min and resuspended; this process is repeated for a total of 4 times. After the final spin, cells are resuspended in the appropriate amount of fresh Lung DTC medium (DLS) to give 50,000-100,000 cells per well in 100 μL/well. Greiner cell-repellent, 96-well plates (cat #655976) are used for this experiment.
If there are cell clumps or debris visible, sample is applied to a 70-100 μm filter before plating. At least 50,000 cells per sample are reserved for a Day 0 flow cytometry panel, these cells are stained, fixed, and stored at 4° C. for later flow analysis. […] Cytokines are quantified using a custom-built cytokine/chemokine panel (IP-10, Granzyme B, IFNγ, IL-2, IL-6, TNFα, IL-8, MIP-1a, MIP-1b, MCP-1, IL-10, MIG) from R&D systems on a Luminex reader. […] Flow data is analysed with Flowjo software.

Chain of CD137 (Q07011 24-255): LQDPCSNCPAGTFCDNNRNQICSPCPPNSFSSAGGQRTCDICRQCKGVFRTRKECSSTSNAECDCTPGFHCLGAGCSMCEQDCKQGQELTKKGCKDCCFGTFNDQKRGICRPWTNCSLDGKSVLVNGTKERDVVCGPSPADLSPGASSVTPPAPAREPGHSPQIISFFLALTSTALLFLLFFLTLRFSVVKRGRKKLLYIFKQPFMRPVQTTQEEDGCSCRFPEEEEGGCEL

For `CCCC[C@@H]1NC(=O)[C@H](Cc2ccc(O)cc2)NC(=O)[C@@H]2CCCN2C(=O)[C@H](CC(=O)O)NC(=O)[C@H](C)NC(=O)[C@H](Cc2ccccc2)NC(=O)[C@@H]2CSCCC(=O)N3CN(CN(C3)C(=O)CCSC[C@@H](C(=O)N[C@@H](C)C(N)=O)NC1=O)C(=O)CCSC[C@H](NC(C)=O)C(=O)N[C@@H](CC(C)(C)C)C(=O)N1CCC[C@H]1C(=O)N[C@@H](CCC(=O)O)C(=O)N[C@H](CCCCNC(=O)CCc1cn(CCOCCOCCOCCOCCOCCC(=O)N[C@H]3CSCCC(=O)N4CN5CN(C4)C(=O)CCSC[C@H](NC(=O)[C@@H](CC(=O)O)NC(=O)[C@H](Cc4cccc6ccccc46)NC(=O)[C@@H]4CCCN4C3=O)C(=O)N[C@@H](CCSC)C(=O)N[C@@H](CCCCNC(=N)N)C(=O)N[C@@H](CC(=O)O)C(=O)N[C@@H](Cc3c[nH]c4ccccc34)C(=O)N[C@@H](CO)C(=O)N[C@@H]([C@@H](C)O)C(=O)N3CCC[C@H]3C(=O)N3C[C@H](O)C[C@H]3C(=O)N[C@@H](Cc3c[nH]c4ccccc34)C(=O)N[C@H](C(N)=O)CSCCC5=O)nn1)C(=O)N1CCC[C@H]1C(=O)N[C@@H](Cc1ccc(O)cc1)C(=O)N2` [BCY10572], the EC50 at CD137 was determined as 0.44 nM; in series [1] (IFN-γ secretion), 0.25 nM. The “Fold Induction over Background” value on CD137 (tumour target Nectin4, co-culture with H1376, 6 h) came to 55 fold. In addition, the “max IFN-y” value in series [1] turned out to be 17915 pg/mL. In series [2], this compound returned a T½ of 55.6 min. Moreover, the clearance in series [2] (male, Sprague-Dawley (SD), read-out: Clp) stood at 15.6 mL/min/kg. Further, the Vd in series [2] (male, Sprague-Dawley (SD), read-out: Vdss) came out at 0.882 L/kg. The “change in immune markers (normalized to vehicle)” value in series [3] (48 h (FIG. 8)) is “induced Nectin-4 dependent change in several immune markers”. In addition, the “change in % CD8+ki67+ T cells” value in series [3] (Day 2 flow (FIG. 8)) is given as “induced Nectin-4 dependent change”.

Usually EC50 stands for the concentration giving half of the maximal effect.

The values are drawn from patent publication US11453703B2, “Heterotandem bicyclic peptide complexes” (BicycleTX Limited, priority 2018, dated 2022).
